From patent US7989495B2, “Compositions and methods for inhibiting NF-κB mediated tumorigenicity and adhesion dependent survival of cancer cells” (University of Utah Research Foundation, priority 2002, dated 2011)

Assays:
Type in all cases: cell-based
293-COX-2 cells = test: Apoptosis of 293 cells with ponasterone-inducible COX-2; conditions: 8 hours
Method: The transiently suspended cells were lysed and allowed to bind to DNA oligonucleotides, containing the NF-κB consensus binding site, that were immobilized to 96-well plates. NF-κB protein bound to the oligonucleotides was detected by an antibody to the p65 subunit that only recognized p65 that is bound to DNA. The positive control was HeLa cells that were stimulated with TNFα A control was performed using excess free NF-κB oligonucleotides (Competitor). […] NF-κB binding activity was determined by the TransAM assay as in FIG. 5A. […] The data shown represent typical results of three separate experiments. […] An immunoblot for COX-2 was performed.
DLD-1, HCT-116, and HT-29 colon cancer cell lines were obtained from the ATCC collection and were cultured in Dulbecco's Modification of Eagle's Medium supplemented with 10% fetal bovine serum, glutamine, penicillin, and streptomycin. […]
Single cell suspensions were plated at 100,000 cells per well in 24-well plates in media containing DMSO, BAY 11-7082, BAY 11-7085, or MG-132 for 8-24 hours in an incubator. […] 400 μl of binding buffer was added to each tube and the cells were analyzed by flow cytometry immediately. The percent of apoptosis was determined as the percent of annexin V-positive, propidium iodide-negative cells of the total cells counted. […]

[1] = test system: HT-29 colon cancer cell line; test: Cell proliferation assay (crystal violet, 590 nm); conditions: 10 μM, cultured 8 days
Method: DLD-1, HCT-116, and HT-29 colon cancer cell lines were obtained from the ATCC collection and were cultured in Dulbecco's Modification of Eagle's Medium supplemented with 10% fetal bovine serum, glutamine, penicillin, and streptomycin. 293 cells stably transfected with COX-2 (293-COX-2) under the control of a ponasterone sensitive promoter were cultured in Dulbecco's Modification of Eagle's Medium supplemented with 10% fetal bovine serum, 400 μg/ml of zeocin, 400 μg/ml of G418, glutamine, penicillin, and streptomycin. For induction of COX-2 protein expression, 293-COX-2 cells were cultured for 48 hours in media supplemented with 1 μg/ml of ponasterone. All cells were cultured at 37° C. in a humidified incubator with a 5% CO2 atmosphere.
For the cell proliferation assay, cells were dispersed and plated at 40,000 cells/well in 96-well dishes. At various days in culture, the cells were gently washed twice with 100 μl/well of ice-cold blocking buffer (1% radioimmunoassay grade BSA in PBS) and twice with 100 μl/well of ice-cold PBS. The cells were fixed for 10 min in 100% ice-cold methanol (100 μl/well), then allowed to air-dry. The cells were stained with 100μl/well of 0.1% crystal violet in H2O for 10 minutes, then washed gently four times with dd H20 and four times with PBS. The plates were then air-dried completely. The stained cells were then solubilized in 1% sodium deoxycholate, and the plates read at 590 nm in a spectrophotometer. The absorption at 590 nm is proportional to the number of attached cells.

c-IAP-1 = test: Immunoblot of anti-apoptotic proteins in HT-29 cells; conditions: transiently suspended or adherent HT-29; 20 μM; 8 hours
Method: (§1) The data points represent the means of triplicate experiments and the error bars the standard errors of the means. […] The percent of apoptotic cells was then determined by the annexin V assay. […] The results shown are typical of two separate experiments. […] Immunoblots were performed for c-IAP-2, TRAF-1, TRAF-2, and FLIP. All lanes contain equal total protein.
(§2) The cells were washed twice in ice cold PBS and then lysed in 4° C. lysis buffer (50 mM HEPES, 150 mM NaCl, 1.5 mM MgCl2, 1 mM EGTA, 100 mM NaF, 10 mM Na2PO4, 1 mM Na3VO4, 10% glycerol, 1% Triton X-100, and 1 μg/ml each of aprotinin, leupeptin, chymostatin, pepstatin) and clarified at 12,000 rpm at 4° C. for 15 minutes. The lysates were normalized for total protein concentration. Aliquots of the lysates were then mixed 1:1 in sample buffer (125 mM Tris-HCl (pH 6.8), 20% glycerol. 4% sodium dodecyl sulfate, 2% beta-mercaptoethanol, 10 μg/ml bromophenol blue) and boiled for 3 minutes. The samples were loaded onto SDS-PAGE gels (7.5 or 10% acrylamide). The proteins were transferred to nitrocellulose from the gels, then incubated in blocking buffer (1% bovine serum albumin (Bio-Rad), 100 mM Tris-Cl (pH7.4), 0.9% NaCl, 0.1% Nonidet) overnight at 4° C.
(§3) For immunodetection, the blocked blots were probed with primary antibody for 2 hours at 4° C. on a rocker. The blots were washed twice for 10 minutes each in blocking buffer, then incubated with a 1:2000 dilution of a rabbit-anti-mouse secondary antibody (for monoclonal primary antibodies; for polyclonal antibodies, this step was skipped). After two washes in blocking buffer (150 mM NaCl, 20 mM Tris pH 7.4, 0.5% Tween 20, 5% bovine serum albumin, and 0.2 gm/500 ml final concentration of sodium azide), the blots were finally incubated with a 1:2000 dilution of alkaline phosphatase-conjugated rabbit-anti-mouse antibodies (Jackson) in blocking buffer. Alkaline phosphatase was detected by a colorimetric reaction using a BCIP (5-Bromo-4-Chloro-3-Indolyl phosphate)/NBT (Nitroblue tetrazolium) kit (Zymed).

TRAF-1 = test: as above; conditions: 20 μM, 8 hours
Method: as §1, §2, §3

TRAF-2 = test: as above; conditions: 20 μM, 8 hours
Method: as §1, §2, §3

[2] = test system: FLIP (54 kilodalton long isoform); test: as above; conditions: adherent HT-29; 20 μM
Method: as §1, §2, §3

Question: `CC(C)(C)c1ccc(S(=O)(=O)/C=C/C#N)cc1` [BAY 11-7085, (2E)-3-[4-(tertiarybutylphenyl)sulfonyl]-2-propenenitrile] was tested. Which apoptosis following treatment (293-COX-2 cells; ponasterone-induced (1 μg/ml, 48 hours) 293-COX-2 cells) did it give?
Answer: marked increase in BAY 11-7085-induced apoptosis

Question: And the apoptosis following treatment (293-COX-2 cells; uninduced 293-COX-2 cells)?
Answer: no increase in apoptosis

Question: And the “inhibition of cell proliferation” value [1]?
Answer: greatly inhibited cell proliferation

Question: What about the c-IAP-1 protein expression (c-IAP-1) of the same molecule?
Answer: No decrease in c-IAP-1 protein expression

Question: And the TRAF-1 protein expression (TRAF-1)?
Answer: decrease in the protein expression

Question: What about the TRAF-2 protein expression (TRAF-2) of the same molecule?
Answer: decrease in the protein expression

Question: And the “expression of the 54 kilodalton (long) isoform of FLIP” value [2]?
Answer: only a slight diminution
